Assay results reported in ChEMBL document CHEMBL1201862, “PubChem BioAssay data set” (2004).
Activity calls are given as the source filed them.

Assays:
[1] = HEp-2 cell cytotoxicity, dose response, cytotoxicity control for RSV inhibitor project, HTS (AID 2410); format: functional; details: human respiratory syncytial virus
[2] = cytotoxicity in KRAS-transformed pancreatic duct cells, primary screen, cell-based, fluorescence, HTS (AID 431); format: functional; details: Homo sapiens;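 also: cell line used: HPDE-C7K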
[3] = cytotoxicity in HPDE-C7 cells, cell-based, fluorescence, HTS (AID 430); format: functional; details: Homo sapiens
[4] = target: T1, Neuropeptide Y receptor type 1 (Homo sapiens, UniProt P25929); assay: NPY-Y1 receptor antagonist potency, dose response, cell-based (AID 1277); format: functional
T1 sequence (P25929 whole entry): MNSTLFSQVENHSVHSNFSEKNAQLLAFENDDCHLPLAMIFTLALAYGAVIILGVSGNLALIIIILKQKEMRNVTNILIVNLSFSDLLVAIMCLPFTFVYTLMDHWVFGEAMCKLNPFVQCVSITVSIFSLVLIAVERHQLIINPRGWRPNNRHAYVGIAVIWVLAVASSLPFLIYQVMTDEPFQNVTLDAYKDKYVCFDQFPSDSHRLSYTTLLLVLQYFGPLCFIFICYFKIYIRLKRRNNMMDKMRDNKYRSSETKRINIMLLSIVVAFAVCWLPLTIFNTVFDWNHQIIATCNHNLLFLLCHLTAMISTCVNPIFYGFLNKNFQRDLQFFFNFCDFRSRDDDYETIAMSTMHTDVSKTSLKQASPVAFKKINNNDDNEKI

[5] = target: T2, Neuropeptide Y receptor type 2 (Homo sapiens, UniProt P49146); assay: NPY-Y2 antagonist potency, selectivity check, dose response, counter-screen for NPY-Y1 antagonist project, cell-based (AID 1278); format: functional
T2 sequence (P49146 whole entry): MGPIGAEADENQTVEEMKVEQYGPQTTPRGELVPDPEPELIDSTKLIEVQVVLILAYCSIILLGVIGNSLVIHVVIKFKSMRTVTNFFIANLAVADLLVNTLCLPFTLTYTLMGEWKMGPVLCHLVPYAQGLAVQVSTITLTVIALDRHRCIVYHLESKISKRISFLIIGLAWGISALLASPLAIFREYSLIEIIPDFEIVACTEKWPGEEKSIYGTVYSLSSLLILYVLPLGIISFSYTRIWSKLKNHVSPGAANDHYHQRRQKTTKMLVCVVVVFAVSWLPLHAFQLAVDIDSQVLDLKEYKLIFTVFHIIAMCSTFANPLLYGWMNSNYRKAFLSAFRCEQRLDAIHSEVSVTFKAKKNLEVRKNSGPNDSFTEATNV

Leucine aminopeptidase = target: T3, Leucine aminopeptidase (Plasmodium falciparum 3D7, UniProt Q8IL11); assay: P. falciparum M17LAP inhibitors, primary screen, biochemical, fluorogenic H-Leu-NHMec substrate, 1536-well (AID 1619); format: functional
T3 sequence (Q8IL11 whole entry): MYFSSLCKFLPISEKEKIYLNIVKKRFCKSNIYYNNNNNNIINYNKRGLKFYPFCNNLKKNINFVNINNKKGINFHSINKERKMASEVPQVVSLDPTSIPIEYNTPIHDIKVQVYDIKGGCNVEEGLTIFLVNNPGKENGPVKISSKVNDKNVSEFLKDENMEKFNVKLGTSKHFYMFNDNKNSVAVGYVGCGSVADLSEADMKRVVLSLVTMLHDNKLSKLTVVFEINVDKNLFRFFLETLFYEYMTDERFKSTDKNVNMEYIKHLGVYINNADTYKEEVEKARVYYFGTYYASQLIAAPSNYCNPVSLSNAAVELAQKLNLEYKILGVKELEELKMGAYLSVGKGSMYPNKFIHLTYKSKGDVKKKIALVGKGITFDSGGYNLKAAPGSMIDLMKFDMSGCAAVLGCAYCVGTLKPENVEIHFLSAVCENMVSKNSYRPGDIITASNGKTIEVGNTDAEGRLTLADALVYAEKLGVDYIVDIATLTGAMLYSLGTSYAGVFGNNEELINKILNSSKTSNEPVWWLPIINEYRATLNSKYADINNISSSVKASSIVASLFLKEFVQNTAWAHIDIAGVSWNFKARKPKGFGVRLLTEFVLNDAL

Cytochrome P450 2C19 = Cytochrome P450 2C19 (Homo sapiens, UniProt P33261); assay: Cytochrome panel assay with activity outcomes. Panel member name: p450-cyp2c19 Compounds with AC50 equal or less than 10 uM are considered active; format: functional; details: read-out: AC50
Cytochrome P450 2C19, sequence (P33261 whole entry): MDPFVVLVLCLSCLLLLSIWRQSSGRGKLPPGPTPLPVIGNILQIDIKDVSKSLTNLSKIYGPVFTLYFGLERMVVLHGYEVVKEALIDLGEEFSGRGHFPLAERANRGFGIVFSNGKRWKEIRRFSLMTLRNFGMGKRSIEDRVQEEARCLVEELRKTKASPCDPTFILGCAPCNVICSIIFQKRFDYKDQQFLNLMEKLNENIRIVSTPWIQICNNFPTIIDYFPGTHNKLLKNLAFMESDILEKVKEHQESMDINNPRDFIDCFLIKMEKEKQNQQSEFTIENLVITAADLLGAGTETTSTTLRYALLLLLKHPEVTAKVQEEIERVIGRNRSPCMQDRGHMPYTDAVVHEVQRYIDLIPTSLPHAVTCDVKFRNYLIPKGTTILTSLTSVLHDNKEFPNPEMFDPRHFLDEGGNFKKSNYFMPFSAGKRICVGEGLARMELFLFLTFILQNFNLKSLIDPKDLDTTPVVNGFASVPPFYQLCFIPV

Streptokinase A = target: T4, Streptokinase A (Streptococcus pyogenes serotype M1, UniProt P10520); assay: S. pyogenes streptokinase expression inhibitors, potency, dose response, plasminogen activation absorbance, OD405 (AID 1914); format: functional, Streptococcus pyogenes M1 GAS;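 also: secreted streptokinase activity via plasminogen activation per viability signal from cell pellet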
T4 sequence (P10520 whole entry): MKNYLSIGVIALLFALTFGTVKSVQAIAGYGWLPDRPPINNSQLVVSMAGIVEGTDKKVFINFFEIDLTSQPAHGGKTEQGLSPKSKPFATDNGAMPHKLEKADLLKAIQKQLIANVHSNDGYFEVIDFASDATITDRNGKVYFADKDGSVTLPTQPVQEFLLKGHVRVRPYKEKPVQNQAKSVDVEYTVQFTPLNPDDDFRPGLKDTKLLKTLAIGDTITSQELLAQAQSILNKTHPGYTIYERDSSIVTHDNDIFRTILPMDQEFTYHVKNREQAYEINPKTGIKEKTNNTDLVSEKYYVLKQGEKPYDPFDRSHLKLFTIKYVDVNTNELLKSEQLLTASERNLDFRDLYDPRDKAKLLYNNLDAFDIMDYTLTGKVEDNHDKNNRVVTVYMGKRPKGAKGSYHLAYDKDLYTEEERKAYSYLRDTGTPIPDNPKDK

[6] = Luminescence Cell-Based Dose Retest to Confirm Inhibitors of Cancer Stem Cells. [Related pubchem assays (depositor defined):AID2717, AID2721]; format: functional; details: Homo sapiens
[7] = M. tuberculosis H37Rv growth inhibitors, H37Rv strain (AID 1626); format: functional
Streptococcus = assay: Group A Streptococcus viability loss, dose response, counter-screen for streptokinase expression inhibitor project, luminescence, BacTiterGlo (AID 1915); format: functional, organism-based;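 also: potency for reduction of bacterial viability or growth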
[8] = tested on: Streptococcus sp. 'group A'; assay: growth inhibition of control SK(-) GAS strain, dose response, counter-screen for streptokinase expression inhibitor project, luminescence, kanamycin, BacTiterGlo, confirmation (AID 1900); format: functional, organism-based
[9] = target: Luciferin 4-monooxygenase (Photinus pyralis, UniProt P08659); assay: Counter Screen for Luciferase-based Assay Positives. [Related pubchem assays: 620, 618, 411 ]
Luciferin 4-monooxygenase, sequence (P08659 whole entry): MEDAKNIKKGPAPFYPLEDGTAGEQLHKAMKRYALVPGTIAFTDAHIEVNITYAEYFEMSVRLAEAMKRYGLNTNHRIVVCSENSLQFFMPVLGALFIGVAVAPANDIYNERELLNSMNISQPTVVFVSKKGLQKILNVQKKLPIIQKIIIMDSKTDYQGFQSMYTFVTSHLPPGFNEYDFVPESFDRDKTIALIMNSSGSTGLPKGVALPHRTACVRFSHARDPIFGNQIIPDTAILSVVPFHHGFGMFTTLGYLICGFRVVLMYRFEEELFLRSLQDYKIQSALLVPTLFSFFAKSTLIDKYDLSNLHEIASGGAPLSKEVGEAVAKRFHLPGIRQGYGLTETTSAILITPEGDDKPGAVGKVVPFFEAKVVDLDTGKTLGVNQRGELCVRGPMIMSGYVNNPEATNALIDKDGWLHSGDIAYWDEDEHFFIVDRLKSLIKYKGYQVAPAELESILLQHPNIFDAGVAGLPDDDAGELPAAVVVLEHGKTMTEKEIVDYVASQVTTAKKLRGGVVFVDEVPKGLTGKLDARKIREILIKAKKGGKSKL

HT-1080 = assay: cytotoxicity in HT1080 fibrosarcoma cells, cell-based, fluorescence readout (AID 620); format: functional; details: Homo sapiens

SMILES: COc1ccc(C(=O)Nc2nc3c(s2)CCCC3)cc1S(=O)(=O)N1CCCc2ccccc21
- IC50 (cells): 5.95 µM (active)
- CC50 [1]: 3.66 µM (active)

SMILES: O=C1CC(c2ccc3c(c2)OCO3)c2cc3c(cc2N1)OCCO3 (centres undefined)
- EC50 [2]: > 20 µM (not active)
- EC50 [3]: > 20 µM (not active)

SMILES: COc1ccc(N2CCN(C(c3cccc(OC)c3OC)c3nnnn3C3CCCC3)CC2)cc1 (centres undefined)
- IC50 [4]: > 35 µM (not active)
- IC50 [5]: > 35 µM (not active)

SMILES: COC(=O)c1ccc(NC(=O)C2CCCCC2C(=O)O)cc1 (centres undefined)
- IC50 (Leucine aminopeptidase): 13.5 µM (active)
- AC50 (Cytochrome P450 2C19): 0.0398 µM (inconclusive)

SMILES: c1ccc(-c2cc3c(NCC4COc5ccccc5O4)ncnc3s2)cc1 (centres undefined)
- EC50 (Streptokinase A): 3.29 µM (active)
- AC50 [6]: 3.96 µM (active)
- IC50 [7]: > 100 µM (active)
- EC50 (Streptococcus): 21.7 µM (active)
- EC50 [8]: 3 µM (active)

SMILES: O=[N+]([O-])c1ccccc1S(=O)(=O)Nc1cccc(-c2ccc(N3CCCC3)nn2)c1
- IC50 (cells): 5.15 µM (active)
- CC50 [1]: 40.6 µM (active)

SMILES: COC(=O)c1ccc(-c2nc(-c3cccs3)no2)cc1
- EC50 [9]: 0.76 µM (active)
- EC50 (HT-1080): > 50 µM (not active)

SMILES: Cc1ccc(S(=O)(=O)N2CCCC(c3nc(O)c4nnn(Cc5ccc6c(c5)OCCO6)c4n3)C2)cc1 (centres undefined)
- IC50 (cells): 10.2 µM (active)
- CC50 [1]: 14.4 µM (active)
